Where “and” joins values, the source holds several entries; their conditions need not be identical. Equal values may be shown once.
Tests used:
[1] = Post-hoc estimates of AUC from the pharmacokinetic model (systemic exposure); settings: human, in vivo, subcutaneous
Source text: In order to explore the relationship between concentration and the effect on spine BMD, a pharmacokinetic/pharmacodynamic model was developed. This relationship was best described by a sigmoid Emax model with AUC50 estimated at 170 pg·hr/mL.

[2] = tested on: men with primary osteoporosis; assay: Example 5 study GHAJ: bone densitometry (BMD, BMC) in men; assay type: in vivo, human; settings: for Distal Radius (Forearm) BMD, mean change from baseline to endpoint / Distal Radius (Forearm) BMD, mean percent change from baseline to endpoint / Ultradistal Radius (Forearm) BMD, mean change from baseline to endpoint / Ultradistal Radius (Forearm) BMD, mean percent change from baseline to endpoint / Whole body BMD, mean change from baseline to endpoint: subset of patients; for increase in lumbar spine BMD compared to placebo at endpoint: median follow-up approximately 11 months
Method: Four hundred thirty seven men with primary osteoporosis were enrolled in the study. Approximately one-third of die patients were randomly assigned to LY333334 40 μg/day plus calcium and vitamin D, one-third of the patients were randomly assigned to LY333334 20 μg/day plus calcium and vitamin D, and one-third of the patients were randomly assigned to placebo plus calcium and vitamin D. • Number of Subjects: • PTH: Male 437, Female 0, Total 437; • LY333334 20 μg: Male: Total 151. • LY333334 40 μg: Male: Total 139. • Placebo: Male: Total 147. • Diagnosis and Inclusion Criteria: The study patients were men with primary osteoporosis, aged 30 to 85 years, inclusive. L-2 to L-4 vertebrae must have been intact without artifacts, crush fracture or other abnormalities which would have interfered with the analysis of the posterior-anterior lumbar spine bone mineral density (BMD) measurement which must have been at least 2.0 SD below that of young, healthy men. […] Patient Demographic and Other Baseline Characteristics

human subjects = assay: Applicant's studies of daily dose of hPTH(1-34) in human subjects (bone markers, side effects); assay type: in vivo
Method: Therefore, treatment of osteoporosis in men or women with hPTH(1-34) preferably should use a daily dose greater than about 6 μg, more preferably at least about 15 μg. […] Therefore, any daily dose of hPTH(1-34) in the range of greater than about 6 μg to at least about 40 μg would be effective for reduction of the risk of both vertebral and nonvertebral fractures, according to the present method of using this form of parathyroid hormone.

[3] = tested on: postmenopausal osteoporotic women; assay: GHAC efficacy trial (intent to treat BMD, fractures); assay type: in vivo, human; settings: 20 μg/day, 21 months
Method: • Number of Subjects: • rhPTH(1-34): 1093 enrolled, 848 finished. • Placebo: 544 enrolled, 447 finished. • Diagnosis and Inclusion Criteria: Women ages 30 to 85 years, postmenopausal for a minimum of 5 years, with a minimum of one moderate or two mild atraumatic vertebral fractures. • Dosage and Administration: • Test Product (blinded) • rhPTH(1-34): 20 μg/day, given subcutaneously • rhPTH(1-34): 40 μg/day, given subcutaneously • Reference Therapy (blinded) • Placebo study material for injection • Duration of Treatment: • rhPTH(1-34): 17-23 months (excluding 6-month run-in phase) • Placebo: 17-23 months (excluding 6-month run-in phase) • Criteria for Evaluation: Spine x-ray; serum biological markers (calcium, bone-specific alkaline phosphatase, procollagen I carboxy-terminal propeptide); urine markers (calcium, N-telopeptide, free deoxypyridinoline); 1,25-dihydroxyvitamin D; bone mineral density: spine, hip, wrist, and total body: height; population pharmacokinetics; bone biopsy (selected study sites).
Population pharmacodynamic analyses were undertaken to evaluate the time course of the relationships between efficacy measures and LY333334 dose or LY333334 concentrations. […] As a part of this assessment, a population placebo-response model describing the change in BMD in patients randomly assigned to placebo (supplemented with calcium and vitamin D) was first developed. […]

Structure (SMILES): CC[C@H](C)[C@H](NC(=O)[C@H](CCC(=O)O)NC(=O)[C@H](CO)NC(=O)[C@@H](NC(=O)[C@@H](N)CO)C(C)C)C(=O)N[C@@H](CCC(N)=O)C(=O)N[C@@H](CC(C)C)C(=O)N[C@@H](CCSC)C(=O)N[C@@H](Cc1cnc[nH]1)C(=O)N[C@@H](CC(N)=O)C(=O)N[C@@H](CC(C)C)C(=O)NCC(=O)N[C@@H](CCCCN)C(=O)N[C@@H](Cc1cnc[nH]1)C(=O)N[C@@H](CC(C)C)C(=O)N[C@@H](CC(N)=O)C(=O)N[C@@H](CO)C(=O)N[C@@H](CCSC)C(=O)N[C@@H](CCC(=O)O)C(=O)N[C@@H](CCCN=C(N)N)C(=O)N[C@H](C(=O)N[C@@H](CCC(=O)O)C(=O)N[C@@H](Cc1c[nH]c2ccccc12)C(=O)N[C@@H](CC(C)C)C(=O)N[C@@H](CCCN=C(N)N)C(=O)N[C@@H](CCCCN)C(=O)N[C@@H](CCCCN)C(=O)N[C@@H](CC(C)C)C(=O)N[C@@H](CCC(N)=O)C(=O)N[C@@H](CC(=O)O)C(=O)N[C@H](C(=O)N[C@@H](Cc1cnc[nH]1)C(=O)N[C@@H](CC(N)=O)C(=O)N[C@@H](Cc1ccccc1)C(=O)O)C(C)C)C(C)C [LY333334]
- AUC ([1]; 20 ug): 0.365 ng·h/mL
- AUC ([1]; 40 ug): 0.576 ng·h/mL
- patients with a decrease in vertebral BMD at study endpoint ([2]; 20 μg): 7.1%
- increase in whole body BMC compared with the placebo group ([2]; 20 μg group): approximately 0.9%
- Femoral Neck BMD, mean change from baseline to endpoint ([2]; 20 μg/day): 0.01 ± 0.03 g/cm^2
- Femoral Neck BMD, mean percent change from baseline to endpoint ([2]; 20 μg/day): 1.4% and 1.44% and 1.44 ± 3.61%
- Intertrochanter BMD, mean change from baseline to endpoint ([2]; 20 μg/day): 0.01 ± 0.03 g/cm^2
- Intertrochanter BMD, mean percent change from baseline to endpoint ([2]; 20 μg/day): 1.20 ± 3.07%
- Lumbar Spine (L-1 through L-4) BMD, mean change from baseline to endpoint ([2]; 20 μg/day): 0.05 ± 0.04 g/cm^2
- Lumbar Spine (L-1 through L-4) BMD, mean percent change from baseline to endpoint ([2]; 20 μg/day): 5.7% and 5.73% and 5.73 ± 4.46%
- Total Hip BMD, mean change from baseline to endpoint ([2]; 20 μg/day): 0.01 ± 0.02 g/cm^2
- Total Hip BMD, mean percent change from baseline to endpoint ([2]; 20 μg/day): 1.14% and 1.14 ± 2.89%
- Trochanter BMD, mean change from baseline to endpoint ([2]; 20 μg/day): 0.01 ± 0.03 g/cm^2
- Trochanter BMD, mean percent change from baseline to endpoint ([2]; 20 μg/day): 1.25 ± 4.15%
- Ward's Triangle BMD, mean change from baseline to endpoint ([2]; 20 μg/day): 0.01 ± 0.04 g/cm^2
- Ward's Triangle BMD, mean percent change from baseline to endpoint ([2]; 20 μg/day): 2.48 ± 7.20%
- increase in hip (femoral neck) BMC at study endpoint ([2]; 20 μg/day): 1%
- increase in lumbar spine BMC at study endpoint ([2]; 20 μg/day): 7%
- Distal Radius (Forearm) BMD, mean change from baseline to endpoint ([2]; 20 μg/day): −0.00 ± 0.02 g/cm^2
- Distal Radius (Forearm) BMD, mean percent change from baseline to endpoint ([2]; 20 μg/day): −0.47 ± 2.21%
- Ultradistal Radius (Forearm) BMD, mean change from baseline to endpoint ([2]; 20 μg/day): −0.00 ± 0.01 g/cm^2
- Ultradistal Radius (Forearm) BMD, mean percent change from baseline to endpoint ([2]; 20 μg/day): −0.40 ± 3.15%
- Whole body BMD, mean change from baseline to endpoint ([2]; 20 μg/day): 0.01 ± 0.03 g/cm^2
- patients with a decrease in vertebral BMD at study endpoint ([2]; 40 μg): 6.2%
- decrease in distal ⅓ radius (forearm) BMD compared with the placebo group ([2]; 40 μg group): 1.0%
- increase in whole body BMC compared with the placebo group ([2]; 40 μg group): 1.3%
- Femoral Neck BMD, mean change from baseline to endpoint ([2]; 40 μg/day): 0.02 ± 0.04 g/cm^2
- Femoral Neck BMD, mean percent change from baseline to endpoint ([2]; 40 μg/day): 2.9% and 2.85% and 2.85 ± 6.07%
- Intertrochanter BMD, mean change from baseline to endpoint ([2]; 40 μg/day): 0.02 ± 0.04 g/cm^2
- Intertrochanter BMD, mean percent change from baseline to endpoint ([2]; 40 μg/day): 2.32 ± 4.57%
- Lumbar Spine (L-1 through L-4) BMD, mean change from baseline to endpoint ([2]; 40 μg/day): 0.07 ± 0.05 g/cm^2
- Lumbar Spine (L-1 through L-4) BMD, mean percent change from baseline to endpoint ([2]; 40 μg/day): 8.8% and 8.75% and 8.75 ± 6.25%
- Total Hip BMD, mean change from baseline to endpoint ([2]; 40 μg/day): 0.02 ± 0.03 g/cm^2
- Total Hip BMD, mean percent change from baseline to endpoint ([2]; 40 μg/day): 2.33% and 2.33 ± 4.51%
- Trochanter BMD, mean change from baseline to endpoint ([2]; 40 μg/day): 0.01 ± 0.03 g/cm^2
- Trochanter BMD, mean percent change from baseline to endpoint ([2]; 40 μg/day): 1.98 ± 5.16%
- Ward's Triangle BMD, mean change from baseline to endpoint ([2]; 40 μg/day): 0.03 ± 0.05 g/cm^2
- Ward's Triangle BMD, mean percent change from baseline to endpoint ([2]; 40 μg/day): 6.19 ± 10.21%
- increase in hip (femoral neck) BMC at study endpoint ([2]; 40 μg/day): 3%
- increase in lumbar spine BMC at study endpoint ([2]; 40 μg/day): 10%
- Distal Radius (Forearm) BMD, mean change from baseline to endpoint ([2]; 40 μg/day): −0.01 ± 0.02 g/cm^2
- Distal Radius (Forearm) BMD, mean percent change from baseline to endpoint ([2]; 40 μg/day): −0.67 ± 2.36%
- Ultradistal Radius (Forearm) BMD, mean change from baseline to endpoint ([2]; 40 μg/day): 0.00 ± 0.02 g/cm^2
- Ultradistal Radius (Forearm) BMD, mean percent change from baseline to endpoint ([2]; 40 μg/day): 0.54 ± 5.98%
- Whole body BMD, mean change from baseline to endpoint ([2]; 40 μg/day): 0.01 ± 0.03 g/cm^2
- patients with an increase in lumbar spine BMD of 5% or more ([2]; 20-μg group): 54.6%
- lumbar spine BMD increase from baseline by visit ([2]; 20-μg group, Month 3): 2.44%
- lumbar spine BMD increase from baseline by visit ([2]; 20-μg group, Month 6): 4.29
- difference in lumbar spine BMD between treatment group and placebo ([2]; 20-μg group, Month 12): 5.49%
- lumbar spine BMD increase from baseline by visit ([2]; 20-μg group, Month 12): 6.07%
- increase in lumbar spine BMD compared to placebo at endpoint ([2]; 20-μg/day): 5%
- lumbar spine BMD response in hypogonadal vs idiopathic subgroups ([2]; 20 and 40 μg): did not differ significantly
- patients with an increase in lumbar spine BMD of 5% or more ([2]; 40-μg group): 70.5%
- lumbar spine BMD increase from baseline by visit ([2]; 40-μg group, Month 3): 3.87%
- lumbar spine BMD increase from baseline by visit ([2]; 40-μg group, Month 6): 6.33%
- difference in lumbar spine BMD between treatment group and placebo ([2]; 40-μg group, Month 12): 8.83%
- lumbar spine BMD increase from baseline by visit ([2]; 40-μg group, Month 12): 9.41%
- increase in lumbar spine BMD compared to placebo at endpoint ([2]; 40-μg/day): 8%
- distal ⅓ radius (forearm) and ultradistal radius BMD compared with the placebo group ([2]; both 20-μg and 40-μg groups): unchanged
- effect on bone formation as indicated by bone markers (human subjects; 6 μg): no significant effects
- undesirable side effects (human subjects; daily dose of about 20 μg vs about 40 μg): fewer undesirable side effects
- lowest tested dose effective for stimulation of bone formation, as indicated by bone markers (human subjects; human subjects, daily dose): about 15 μg
- actual increase in femoral neck BMD from intent to treat analyses [3]: 2.8%
- actual increase in spine BMD from intent to treat analyses [3]: 9.7%
